In data set [1] the test system is Galium aparine, Abutilon theophrasti, Alopecurus myosuroides, Avena fatua, Ipomoea purpurea, Echinchloa crus-galli, Solanum nigrum and Cyperus iria. Description: Post-emergence effect on weeds (greenhouse pot test, applied over the top of plants at one-leaf-stage). To be noted: application rate of 3 kg or less of active ingredient per hectare, treated at one-leaf-stage, assessed three to four weeks after application vs untreated control. The class given is in vivo. Here is the method:
Seeds of monocotyledonous and dicotyledonous weeds and/or crops were placed in sandy loam in wood-fibre-pots covered with soil and grown under good greenhouse conditions. The plants were treated at the one-leaf-stage two to three weeks after sowing. The compounds, formulated as wettable powders or emulsifiable concentrates were dissolved and diluted with water containing adjuvant and then applied over the top of the plants at different dose rates at an application volume of 600 or 800 litres water per ha. After the treatment, the pots were placed in the greenhouse and kept under good growth conditions for the plants. The herbicidal effect was assessed visually as a percentage figure in comparison with the untreated control three to four weeks after application

For data set [2] the test system is unchanged. Description: Pre-emergence effect on weeds (greenhouse pot test, applied to the covering soil). In kind it is in vivo. The settings on record: application rate of 3 kg or less of active ingredient per hectare, assessed three to four weeks after application vs untreated control. The procedure:
Seeds of monocotyledonous and dicotyledonous weeds and/or crops were placed in sandy loam in wood-fibre-pots and covered with soil. The compounds formulated as wettable powders or emulsifiable concentrates were dissolved and diluted with water containing adjuvant and then applied to the surface of the covering soil at different dose rates at an application volume of 600 or 800 litres water per ha. After the treatment, the pots were placed in the greenhouse and kept under good growth conditions for the plants. The herbicidal effect was assessed visually as a percentage figure in comparison with the untreated control three to four weeks after application. 100% Efficacy refers to the complete damage of the assessed plants, 0% efficacy refers to the appearance of the untreated control.

Structures are written as SMILES.

In the case of `c1ccc2c(c1)NNc1nncn1-2` [Compound 6, 4,5-dihydro[[1,2,4]triazolo[3,4-c][1,2,4]benzotriazine], in data set [1], the “post-emergence control of the tested weed species (herbicidal effect assessed visually)” value (“post-emergence control” for short) is “very good post-emergence control”. For the same molecule, the “pre-emergence control of harmful weed species (herbicidal effect assessed visually)” value (“pre-emergence control” for short) in data set [2] was “very good pre-emergence control”.
On to `c1ccc2c(c1)nnc1nncn12` [Compound 3, [1,2,4]triazolo[3,4-c][1,2,4]benzotriazine], for which the melting point lay in the range of 259 to 261 °C. Moreover, the “post-emergence control” value in data set [1] is reported as “very good post-emergence control”. Also, in data set [2], the “pre-emergence control” value is given as “very good pre-emergence control”.
For the molecule `[O-][n+]1nc2nncn2c2ccc(Br)cc21` [Compound 5, 7-bromo[1,2,4]triazolo[3,4-c][1,2,4]benzotriazine-5-oxide], the “post-emergence control” value in data set [1] is “very good post-emergence control”. For the same molecule, the “pre-emergence control” value in data set [2] is “very good pre-emergence control”.

One may read the melting point as the temperature of the solid-liquid transition.
